Experimental data published in patent publication US20240122212A1 (SUNTORY HOLDINGS LIMITED, priority 2020, published 2024).

What was measured:
[1] = Basic taste quality sensory evaluation by trained panelists, spitting test, against 6% sucrose control (Example 1); format: in vivo, human
Method: In each evaluation item, the rating on a scale of −3 point to 3 point was performed, with the case where there is no difference from the control solution being 0. Quicker in sweetness onset, higher sweetness intensity, shorter lingering sweet aftertaste, lower bitterness intensity, and shorter lingering bitter aftertaste compared to the control were rated near 3 points. Slower in sweetness onset, lower sweetness intensity, longer lingering sweet aftertaste, higher bitterness intensity, and longer lingering bitter aftertaste compared to the control were rated near −3 points. That is, the closer to 0 point, the closer to the control. The evaluation was carried out by those (4 persons) who received sensory trainings as panelists by spitting test. The amount of a sweet substance contained in each sample solution was adjusted to be equal to the control solution on the calculation. […] The energy (kcal/100 ml) was calculated from the amount of the sweetener added.

[2] = Degree of sweetness relative to sucrose
Source text: The “sweetness intensity” means an intensity of sweetness of a substance. […] A numerical value obtained by multiplying the degree of sweetness by a concentration Brix value of glucose is the sweetness intensity of glucose in terms of sucrose. Thus, when a concentration of glucose in terms of sucrose is Brix 1.5, the sweetness intensity of glucose is 0.65×1.5=0.975. The sweetness intensity of a sweetener in terms of sucrose can be calculated from a degree of sweetness shown in the following table or a value of a known degree of sweetness.
For example, when the sweetness intensity of sucrose per unit concentration Brix 1 is defined as a degree of sweetness of 1, a degree of sweetness of rebaudioside D is about 200 to 250 (median value 225), a degree of sweetness of rebaudioside M is about 200 to 260 (median value 230), a degree of sweetness of rebaudioside B is about 325, a degree of sweetness of rebaudioside A is about 200 to 300 (median value 250), a degree of sweetness of rebaudioside N is about 200 to 250 (median value 225), a degree of sweetness of rebaudioside O is about 200 to 250 (median value 225), a degree of sweetness of rebaudioside E is about 70 to 80 (median value 75), a degree of sweetness of a Luo han guo extract (containing 40% of Mog V) is about 110 to 150 (median value 130), a degree of sweetness of mogroside V is about 240 to 300 (median value 270), and a degree of sweetness of thaumatin is about 2,000, and a degree of sweetness of brazzein is about 500 to 2,000 (median value 1,250). The numerical value obtained by multiplying these degrees of sweetness by a concentration (w/v % (considered to be the same as w/w % in the case of a beverage)) of the high-intensity sweetener in a fruit juice beverage is a sweetness intensity of the high-intensity sweetener. The relative ratio in degrees of sweetness of various sweeteners to the degree of sweetness of 1 of sucrose can be determined from a known sugar sweetness conversion table, and the like. In the present description, when a degree of sweetness is shown in a numerical value range, the median value may be used. However, a sweetener having different values in a degree of sweetness by literatures, a relative ratio in a degree of sweetness to the degree of sweetness of 1 of sucrose can be defined by a sensory test. Examples of such a sensory test include a method in which samples were prepared by adding sucrose having a sweetness intensity of Brix 3.0 to 5.0 in 0.5 increments to pure water, and of which a sucrose-added sample having a sweetness intensity equal to an aqueous solution of a sweetener in a predetermined concentration is selected.
Additionally, for a sweetener with a variable degree of sweetness as a sweetness intensity increases, degrees of sweetness in different concentrations are actually measured and plotted whereby a degree of sweetness in a predetermined concentration may be calculated from the obtained approximate curve.

[3] = scale −3 to 3, 0 = no difference from 6% sucrose control, D-allulose 8.57 w/v %, D-arabinose 10 w/v % in pure water, 4 panelists

O=C[C@@H](O)[C@H](O)[C@H](O)CO [D-Arabinose]
taste quality compared with aqueous solutions containing D-allulose ([1]; aqueous solutions, Example 1): lower bitterness intensity and shorter lingering bitter aftertaste with the taste quality closer to sucrose | Bitterness intensity [1, 3]: 0 point | Lingering bitter aftertaste [1, 3]: −0.125 point | Lingering sweet aftertaste [1, 3]: 0 point | Quickness in sweetness onset [1, 3]: 0.250 point | Sweetness intensity [1, 3]: 0 point | degree of sweetness, times as much as that of sucrose ([2]; according to the confirmation by the present inventors): about 0.6 times | degree of sweetness, times as much as that of sucrose ([2]; value used to design the sample solutions): 0.6 times | sweetness intensity, times as much as that of sucrose ([2]; value used to design the sample solutions of Example 5): 0.6 times
